# In ChEMBL document CHEMBL4715722, “Discovery and preliminary structure-activity relationship studies on tecomaquinone I and tectol as novel farnesyltransferase and plasmodial inhibitors” (Bioorg Med Chem, 2016):
# Tests used:
# [1] = Inhibition of partially purified human FTase using dan-syl-GCVLS peptide as substrate measured for 15 mins by fluorescence based assay
# [2] = Inhibition of Trypanosoma brucei FTase
# Plasmodium falciparum = assay: Antiplasmodial activity against chloroquine-resistant Plasmodium falciparum FcB1 infected in erythrocyte incubated for 48 hrs by [3H]-hypoxanthine incorporation assay; format: functional, organism-based
# [3] = Cytotoxicity against human tumor cell line; format: cell-based
# [4] = Inhibition of bovine brain FTase using 3H-farnesyl diphosphate as substrate incubated for 30 mins by beta-plate counting method; design: species or system Bos taurus
# [5] = Inhibition of recombinant human FTase
SMILES,IC50 [1],IC50 ([2]; read-out: IC50),IC50 (Plasmodium falciparum),Activity [3],IC50 [4],IC50 [2],IC50 [5]
CC(C)=CCCC1(C)C=Cc2c(-c3c4c(c5ccccc5c3O)OC(C)(CCC=C(C)C)C=C4)c(O)c3ccccc3c2O1 (stereo unspecified),4.4 µM,6.1 µM,10.6 µM,Non-Toxic,,,
CC(C)=CCC/C(C)=C/CCc1ccc2c(c1)C(=O)c1ccccc1C2=O,1.4 µM,1.7 µM,> 28 µM,Non-Toxic,,,
CC1(C)C=Cc2c(-c3c4c(c5ccccc5c3O)OC(C)(C)C=C4)c(O)c3ccccc3c2O1 [tectol],2.09 µM,1.73 µM,3.44 µM,Non-Toxic,,,
CCCCCCCC(=O)O[C@@H]1[C@@H](O)C2(CCCC(OC(C)=O)C(C)C/C=C/c3ccccc3)OC(C(=O)O)C(O)(C(=O)O)C1(C(=O)O)O2 (stereo partly specified),,,,,0.1 µM,,
CC(C)=CCCC1(C)C=Cc2c3c(c4ccccc4c2O1)OC(C)(CCC=C(C)C)C=C3 (stereo unspecified),4.4 µM,7.9 µM,> 23 µM,Non-Toxic,,,
CC(C)=CCC/C(C)=C/CC/C(C)=C/C1Oc2c(c3c(c4ccccc24)OC(C)(CC/C=C(\C)CCC=C(C)C)C=C3)C2=C1C(=O)c1ccccc1C2=O (stereo unspecified),9.98 µM,,> 14 µM,Non-Toxic,,Not Active,
CC(C)=CCC/C(C)=C/CCC1(C)C=Cc2c(-c3c4c(c5ccccc5c3O)OC(C)(CC/C=C(\C)CCC=C(C)C)C=C4)c(O)c3ccccc3c2O1 (stereo unspecified),1.8 µM,8.7 µM,7.05 µM,Non-Toxic,,,
CC(=O)OC(CCCC12OC(C(=O)O)C(O)(C(=O)O)C(C(=O)O)(O1)[C@H](OC(=O)CC/C=C/C(C)CCCc1ccccc1)[C@H]2O)C(C)Cc1ccccc1 (stereo partly specified),,,,,0.15 µM,,
O=C(O)C/C(C(=O)O)=C(/CCCCCCCCCCCCCCCCOS(=O)(=O)O)C(=O)O,,,,,,,0.014 µM
CC(C)=CCC/C(C)=C/C1Oc2c(c3c(c4ccccc24)OC(C)(CCC=C(C)C)C=C3)C2=C1C(=O)c1ccccc1C2=O (stereo unspecified),1.1 µM,2.7 µM,> 17 µM,Non-Toxic,,,
CCCCCCCCCC(=O)O[C@@H]1[C@@H](O)C2(CCCC(OC(C)=O)C(C)C/C=C/c3ccccc3)OC(C(=O)O)C(O)(C(=O)O)C1(C(=O)O)O2 (stereo partly specified),,,,,0.1 µM,,
CC(C)=CCCc1ccc2c(c1)C(=O)c1ccccc1C2=O,1.5 µM,1.4 µM,> 34 µM,Non-Toxic,,,
CC(C)=CCC/C(C)=C/CCC1(C)C=Cc2c3c(c4ccccc4c2O1)OC(C)(CC/C=C(\C)CCC=C(C)C)C=C3 (stereo unspecified),1.7 µM,2.6 µM,> 18 µM,Non-Toxic,,,
CCC(CC(C)C(=O)O)C(=O)CC/C(C)=C/C(C)C/C(C)=C/C(C)C(O)C(C)CCC(CCCC/C=C/C(C)CCC(C)OC(=O)CC(CC(=O)O)C(=O)O)OC(=O)CC(CC(=O)O)C(=O)O (stereo unspecified),,,,,,,0.05 µM
CC(C)=CC1Oc2c(c3c(c4ccccc24)OC(C)(C)C=C3)C2=C1C(=O)c1ccccc1C2=O (stereo unspecified) [TECOMAQUINONE],0.065 µM,0.112 µM,> 22 µM,Non-Toxic,,,
CCC(CC(C)C(=O)O)C(=O)CC/C1=C/C(C)C/C(C)=C/C(C)C(O)C(C)CCC(CCCC/C=C/C(C)CCC(C)OC(=O)CC(CC(=O)O)C(=O)O)OC(=O)CC(C(=O)O)CC(=O)OC1 (stereo unspecified) [ACTINOPLANIC ACID A],,,,,,,0.23 µM
